The text below walks through data of patent publication US10519211B2, “Compounds as peptidic GLP1/glucagon/GIP receptor agonists” (SANOFI, priority 2016, dated 2019).

Numbered stars: 1 amine (or outer) side, 2 acyl side, 3 side chain; on linkers, the order of the positions; unused ones are H or OH. Square brackets hold non-standard residues; d marks the D form. Side chains are listed from the residue outwards. Peptide text beside a SMILES is read from it. * marks the point of attachment. Adipoyl(4R-palmitoylamino) = CCCCCCCCCCCCCCCC(=O)N[C@H](CCC(=O)*)CC(=O)O; γGlu = O=C(O)[C@H](CCC(=O)[*:2])N[*:1]; Palmitoyl = CCCCCCCCCCCCCCCC(=O)*; AEEA = NCCOCCOCC(=O)O; Aib = CC(C)(N)C(=O)O Where only a bound is given, the exact number is not on record here.

Holding throughout (assay type): physicochemical
A short description of data set [1]: Chemical stability assessment (UPLC-UV, relative purity loss). The conditions noted are these: 1 mg/ml, 25 mM acetate buffer pH 4.5 with m-cresol (buffer system A). As for the experimental part: Prior to the chemical stability measurement of a peptide batch, its purity was determined through UPLC/MS. For stability testing the target concentration was 1 mg pure compound/ml. Therefore solutions from solid samples were prepared in a buffer system with a concentration of 1 mg/mL compound based on the previously determined % purity:
Chemical stability buffer system A) 25 mM acetate buffer pH4.5, 3 mg/mL L-Methionine, 2.7 mg/mL m-cresol, 18 mg/mL Glycerol 85%
Peptide solutions were filtered through […] pore size and filled into aliquots under aseptic conditions. At starting point UPLC-UV was performed by injection of 2 μl of the undiluted sample.
For chemical stability testing, aliquots were stored for 28 days at Sand 40° C. After this time course the samples were centrifuged for 15 min at 2500 RCF. Then 2 μl of the undiluted supernatant were analysed with UPLC-UV.
The chemical stability was rated through the relative loss of purity calculated by the equation: [(purity at starting point)−(purity after 28 days at X° C.)]/(purity at starting point)]*100%
The purity is calculated as [(peak area peptide)/(total peak area)]*100%
Peptide samples were prepared in Chemical stability buffer system A and chemical stability was assessed as described in Methods.

Data set [2] is described as follows: Solubility assessment (UPLC-UV). Conditions: acetate buffer pH 4.5, 2.7 mg/ml m-cresol (buffer system A), target 10 mg/ml. As for the experimental part: Prior to the solubility measurement of a peptide batch, its purity was determined through UPLC/MS.
Therefore solutions from solid samples were prepared in a buffer systems with a concentration of 10 mg/mL compound based on the previously determined % purity:
Solubility buffer system A) Acetate Buffer pH 4.5, 100 mM sodium acetate trihydrate, 2.7 mg/ml m-Cresol
UPLC-UV was performed after 1 hour of gentle agitation from the supernatant, which was obtained after 15 min of centrifugation at 2500 RCF (relative centrifugal acceleration).
The solubility was determined by the comparison of the UV peak area of 2 μL-injection of a buffered sample diluted 1:10 with a standard curve of a reference peptide with known concentration. The different UV extinction coefficients of sample and reference peptide were calculated based on the different amino acid sequences and considered in the concentration calculation.
Peptide samples were prepared in solubility buffer system A and solubility was assessed as described in Methods.

Data set [3] can be described thus: Thioflavin T (ThT) assay for physical stability (fibrillation). The conditions noted are these: 3 mg/ml, 100 mM acetate pH 4.5 with m-cresol, shaking at 37° C. As for the experimental part:
Investigations were carried out to determine fibrillation tendencies under stress conditions by shaking at 37° C. within Fluoroskan Ascent FL.
For the tests in Fluoroskan Ascent FL, 200 μL sample were placed into a 96 well mictrotiter plate PS, flat bottom, Greiner Fluotrac No. 655076. Plates were sealed with Scotch Tape (Quiagen). Samples were stressed by continuous cycles of 10 s shaking at 960 rpm and 50 s rest period at 37° C. The kinetic was monitored by measuring fluorescence intensity every 20 minutes.
Peptides were diluted in a buffer system to a final concentration of 3 mg/ml. 20 μL of a 10.1 mM ThT solution in H2O were added to 2 mL of peptide solution to receive a final concentration of 100 μM ThT. For each sample eight replicates were tested.
Tht buffer system A) 100 mM Acetate pH 4.5 including m-cresol (100 mM Natriumacetat trihydrat, pH adjustment using 2N CH3COOH, 2.7 mg/mL m-cresol) Tht buffer system B) 100 mM citrate buffer pH 6.0
Lag time in hours in Thioflavin T (ThT) assay of peptide samples was determined in Tht buffer system A as described in Methods.

In the case of `CCCCCCCCCCCCCCCC(=O)N[C@@H](CCC(=O)N[C@@H](CCC(=O)NCCCC[C@H](NC(=O)[C@H](CC(C)C)NC(=O)[C@H](CCCCN)NC(=O)[C@H](CO)NC(=O)[C@H](CC(C)C)NC(=O)[C@H](CC(=O)O)NC(=O)[C@H](CO)NC(=O)[C@@H](NC(=O)[C@H](Cc1ccccc1)NC(=O)[C@@H](NC(=O)CNC(=O)[C@H](CCC(N)=O)NC(=O)C(C)(C)NC(=O)[C@@H](N)Cc1c[nH]cn1)[C@@H](C)O)[C@@H](C)O)C(=O)N[C@@H](CCC(=O)O)C(=O)N[C@@H](CCC(=O)O)C(=O)N[C@@H](CCC(N)=O)C(=O)N[C@@H](CCCNC(=N)N)C(=O)N[C@@H](CCC(N)=O)C(=O)NC(C)(C)C(=O)N[C@@H](CCC(=O)O)C(=O)N[C@@H](Cc1ccccc1)C(=O)N[C@H](C(=O)N[C@@H](CCC(=O)O)C(=O)N[C@@H](Cc1c[nH]c2ccccc12)C(=O)N[C@@H](CC(C)C)C(=O)N[C@@H](CCCCN)C(=O)N[C@@H](C)C(=O)N[C@H](C)C(=O)NCC(=O)N[C@@H](Cc1c[nH]cn1)C(=O)N1CCC[C@H]1C(=O)N[C@@H](CO)C(=O)NC(C)(C)C(=O)N[C@@H](CCCCN)C(=O)N1CCC[C@H]1C(=O)N1CCC[C@H]1C(=O)N1CCC[C@H]1C(=O)N[C@@H](CCCCN)C(N)=O)[C@@H](C)CC)C(=O)O)C(=O)O` [SEQ ID NO: 11, H-Aib-Q-G-T-F-T-S-D-L-S-K-L-K[gGlu-gGlu-Palm]-E-E-Q-R-Q-Aib-E-F-I-E-W-L-K-A-dAla-G-H-P-S-Aib-K-P-P-P-K-NH2] (H-H[Aib]QGTFTSDLSKLK([γGlu-γGlu-Palmitoyl])EEQRQ[Aib]EFIEWLKA[dA]GHPS[Aib]KPPPK-NH2), the “Chemical stability [relative purity loss 28 days 40° C.] (%) at pH 4.5” value in data set [1] is 7.2%. Further, the solubility at 1 h in data set [2] was above 9900 µg/mL. In data set [3], the “Lag time before increase” value is given as above 45 h.

For `CCCCCCCCCCCCCCCC(=O)NCCOCCOCC(=O)N[C@@H](CCC(=O)N[C@@H](CCC(=O)NCCCC[C@H](NC(=O)[C@H](CC(C)C)NC(=O)[C@H](CCCCN)NC(=O)[C@H](CO)NC(=O)[C@H](CC(C)C)NC(=O)[C@H](CC(=O)O)NC(=O)[C@H](CO)NC(=O)[C@@H](NC(=O)[C@H](Cc1ccccc1)NC(=O)[C@@H](NC(=O)CNC(=O)[C@H](CCC(N)=O)NC(=O)C(C)(C)NC(=O)[C@@H](N)Cc1c[nH]cn1)[C@@H](C)O)[C@@H](C)O)C(=O)N[C@@H](CCC(=O)O)C(=O)N[C@@H](CCCCN)C(=O)N[C@@H](CCC(N)=O)C(=O)N[C@@H](CCCNC(=N)N)C(=O)N[C@@H](CCC(N)=O)C(=O)NC(C)(C)C(=O)N[C@@H](CCC(=O)O)C(=O)N[C@@H](Cc1ccccc1)C(=O)N[C@H](C(=O)N[C@@H](CCC(=O)O)C(=O)N[C@@H](Cc1c[nH]c2ccccc12)C(=O)N[C@@H](CC(C)C)C(=O)N[C@@H](CCCCN)C(=O)N[C@@H](C)C(=O)NCC(=O)NCC(=O)N[C@@H](Cc1c[nH]cn1)C(=O)N1CCC[C@H]1C(=O)N[C@@H](CO)C(=O)NC(C)(C)C(=O)N[C@@H](CCCCN)C(=O)N1CCC[C@H]1C(=O)N1CCC[C@H]1C(=O)N1CCC[C@H]1C(=O)N[C@@H](CCCCN)C(N)=O)[C@@H](C)CC)C(=O)O)C(=O)O` [SEQ ID NO: 16, H-Aib-Q-G-T-F-T-S-D-L-S-K-L-K[gGlu-gGlu-AEEA-Palm]-E-K-Q-R-Q-Aib-E-F-I-E-W-L-K-A-G-G-H-P-S-Aib-K-P-P-P-K-NH2] (H-H[Aib]QGTFTSDLSKLK([γGlu-γGlu-AEEA-Palmitoyl])EKQRQ[Aib]EFIEWLKAGGHPS[Aib]KPPPK-NH2), the “Lag time before increase” value in data set [3] is above 45 h.

Regarding `CCCCCCCCCCCCCCCC(=O)N[C@H](CCC(=O)NCCOCCOCC(=O)N[C@@H](CCC(=O)NCCCC[C@H](NC(=O)[C@H](CC(C)C)NC(=O)[C@H](CCCCN)NC(=O)[C@H](CO)NC(=O)[C@H](CC(C)C)NC(=O)[C@H](CC(=O)O)NC(=O)[C@H](CO)NC(=O)[C@@H](NC(=O)[C@H](Cc1ccccc1)NC(=O)[C@@H](NC(=O)CNC(=O)[C@H](CCC(N)=O)NC(=O)C(C)(C)NC(=O)[C@@H](N)Cc1c[nH]cn1)[C@@H](C)O)[C@@H](C)O)C(=O)N[C@@H](CCC(=O)O)C(=O)N[C@@H](CCCCN)C(=O)N[C@@H](CCC(N)=O)C(=O)N[C@@H](CCCNC(=N)N)C(=O)N[C@@H](CCC(N)=O)C(=O)NC(C)(C)C(=O)N[C@@H](CCC(=O)O)C(=O)N[C@@H](Cc1ccccc1)C(=O)N[C@H](C(=O)N[C@@H](CCC(=O)O)C(=O)N[C@@H](Cc1c[nH]c2ccccc12)C(=O)N[C@@H](CC(C)C)C(=O)N[C@@H](CCCCN)C(=O)N[C@@H](C)C(=O)N[C@H](C)C(=O)NCC(=O)N[C@@H](Cc1c[nH]cn1)C(=O)N1CCC[C@H]1C(=O)N[C@@H](CO)C(=O)NC(C)(C)C(=O)N[C@@H](CCCCN)C(=O)N1CCC[C@H]1C(=O)N1CCC[C@H]1C(=O)N1CCC[C@H]1C(=O)N[C@@H](CCCCN)C(N)=O)[C@@H](C)CC)C(=O)O)CC(=O)O` [SEQ ID NO: 21, H-Aib-Q-G-T-F-T-S-D-L-S-K-L-K[gGlu-AEEA-gAAA-Palm]-E-K-Q-R-Q-Aib-E-F-I-E-W-L-K-A-dAla-G-H-P-S-Aib-K-P-P-P-K-NH2] (H-H[Aib]QGTFTSDLSKLK([γGlu-AEEA-Adipoyl(4R-palmitoylamino)])EKQRQ[Aib]EFIEWLKA[dA]GHPS[Aib]KPPPK-NH2), in data set [3], the “Lag time before increase” value is recorded as above 45 h.

On to `CCCCCCCCCCCCCCCC(=O)N[C@H](CCC(=O)NCCOCCOCC(=O)N[C@@H](CCC(=O)NCCCC[C@H](NC(=O)[C@H](CC(C)C)NC(=O)[C@H](CCCCN)NC(=O)[C@H](CO)NC(=O)[C@H](CC(C)C)NC(=O)[C@H](CC(=O)O)NC(=O)[C@H](CO)NC(=O)[C@@H](NC(=O)[C@H](Cc1ccccc1)NC(=O)[C@@H](NC(=O)CNC(=O)[C@H](CCC(N)=O)NC(=O)C(C)(C)NC(=O)[C@@H](N)Cc1c[nH]cn1)[C@@H](C)O)[C@@H](C)O)C(=O)N[C@@H](CCC(=O)O)C(=O)N[C@@H](CCC(=O)O)C(=O)N[C@@H](CCC(N)=O)C(=O)N[C@@H](CCCNC(=N)N)C(=O)N[C@@H](CCC(N)=O)C(=O)NC(C)(C)C(=O)N[C@@H](CCC(=O)O)C(=O)N[C@@H](Cc1ccccc1)C(=O)N[C@H](C(=O)N[C@@H](CCC(=O)O)C(=O)N[C@@H](Cc1c[nH]c2ccccc12)C(=O)N[C@@H](CC(C)C)C(=O)N[C@@H](CCCCN)C(=O)N[C@@H](C)C(=O)NCC(=O)NCC(=O)N[C@@H](Cc1c[nH]cn1)C(=O)N1CCC[C@H]1C(=O)N[C@@H](CO)C(=O)NC(C)(C)C(=O)N[C@@H](CCCCN)C(=O)N1CCC[C@H]1C(=O)N1CCC[C@H]1C(=O)N1CCC[C@H]1C(=O)N[C@@H](CCCCN)C(N)=O)[C@@H](C)CC)C(=O)O)CC(=O)O` [SEQ ID NO: 22, H-Aib-Q-G-T-F-T-S-D-L-S-K-L-K[gGlu-AEEA-gAAA-Palm]-E-E-Q-R-Q-Aib-E-F-I-E-W-L-K-A-G-G-H-P-S-Aib-K-P-P-P-K-NH2] (H-H[Aib]QGTFTSDLSKLK([γGlu-AEEA-Adipoyl(4R-palmitoylamino)])EEQRQ[Aib]EFIEWLKAGGHPS[Aib]KPPPK-NH2), for which the “Lag time before increase” value in data set [3] is recorded as above 45 h.

What is called solubility is how much of the substance goes into solution per volume. A high value points to a readily soluble substance.
